The structures appear in SMILES notation. Entries after “also recorded” stand apart in the source; their conditions may differ.

From US5952298A, “Cryptophycins” (priority 1995, dated 1999) come the findings set out here.

In assay [1] the test system is Human ovarian carcinoma cells (SKOV3). The assay can be described thus: SKOV3 cell proliferation (SRB staining, Example 10). Format: cell-based. The note with it: SKOV3 treated 24 hours with IC50 dose, then drug-free medium.
Assay [2] relates to A-10 rat aortic smooth muscle cells. The format is cell-based. The protocol:
A-10 cells were grown to near-confluency on glass coverslips in BME/10% FBS. Compounds in PBS were added to the indicated final concentrations and cells were incubated for an additional 24 hours. For the staining of microtubules and intermediate filaments, the cells were fixed with cold methanol and incubated with PBS containing 10% calf serum to block nonspecific binding sites. Cells were then incubated at 37° C. for 60 min with either monoclonal anti-β-tubulin or with monoclonal anti-vimentin at dilutions recommended by the manufacturer. Bound primary antibodies were subsequently visualized by a 45-minute incubation with fluorescein-conjugated rabbit antimouse IgG. The coverslips were mounted on microscope slides and the fluorescence patterns were examined and photographed using a Zeiss Photomicroscope Ill equipped with epifluorescence optics for fluorescein. […] PBS containing 100 nM TRITC-phalloidin was then added and the mixture was allowed to incubate for 45 min at 37° C. The cells were washed rapidly three times with PBS before the coverslips were mounted and immediately photographed as described above.
After 24 hours, microtubules and vimentin intermediate filaments were visualized by indirect immunofluorescence and microfilaments were stained using TRITC-phalloidin. The morphological effects of each drug were examined. […] Vimentin intermediate filaments were also evenly distributed throughout the cytoplasm, while bundles of microfilaments were concentrated along the major axis of the cell.

`CC[C@]1(O)C[C@@H]2CN(CCc3c([nH]c4ccccc34)[C@@](C(=O)OC)(c3cc4c(cc3OC)N(C)[C@H]3[C@@](O)(C(=O)OC)[C@H](OC(C)=O)[C@]5(CC)C=CCN6CC[C@]43[C@@H]65)C2)C1` [vinblastine]: the “increase in cell number in the 24 hours following removal of the drug” value in assay [1] was “approximately 3 fold”. Also, the “microtubule depolymerization after taxol pretreatment” value in assay [2] (3 hours 10 μM taxol, then 100 nM vinblastine or 10 nM cryptophycin compound, 24 hours) was “pretreatment with taxol prevented microtubule depolymerization”. In addition, in assay [2] (24 hours, 100 nM vinblastine or 10 nM cryptophycin compounds), the “effect on vimentin intermediate filaments” value is “vimentin intermediate filaments collapsed”. Further, the effect on microtubules result in assay [2] (24 hours, 2 μM cytochalasin B, 100 nM vinblastine or 10 nM cryptophycin compounds) is given as “marked depletion of microtubules; also recorded: complete depolymerization of microtubules”. In assay [2] (24 hr treatment (100 nM vinblastine or 10 nM cryptophycins), then 1 hour or 24 hours drug-free medium), the “reversibility of microtubule depolymerization after removal of the drug” value is listed as “complete morphological recovery by 24 hour”.
